Results reported in US10961238B2, “Modulators of hedgehog (Hh) signaling pathway” (E-THERAPEUTICS PLC, priority 2016, dated 2021).

System: C3H10T1/2 cells
Test: C3H assay: differentiation of C3H10T1/2 cells by mSHH, measurement of alkaline phosphatase
Type: cell-based, mouse
Conditions: Mus musculus, C3H 10T1/2; C3H10T1/2 cells stimulated with mSHH for 72 hours; alkaline phosphatase activity; read-out: IC50 Ranges

Q: `COC(=O)c1coc(N2CC(S(=O)(=O)N3CCC(c4c[nH]c5ncccc45)CC3)C2)n1` [Compound 246, methyl 2-[3-[4-(1H-pyrrolo[2,3-b]pyridin-3-yl)piperidin-1-yl]sulfonylaze-tidin-1-yl]-1,3-oxazole-4-carboxylate] was tested. Which IC50 did it give?
A: 100 to 1000 nM

Q: For `CN(C)CC1(CN2CC(S(=O)(=O)N3CCC(c4c[nH]c5ncccc45)CC3)C2)CCCC1` [Compound 247, N,N-dimethyl-1-[1-[[3-[4-(1H-pyrrolo[2,3-b]pyridin-3-yl)piperidin-1-yl]sulfonylaze-tidin-1-yl]methyl]cyclopentyl] methanamine], which IC50 is on record?
A: 1000 to 10000 nM

Q: For `CC(C)[C@H](CO)NC(=O)N1CC(S(=O)(=O)N2CCC(c3c[nH]c4ncccc34)CC2)C1` [Compound 251, N-[(2R)-1-hydroxy-3-methylbutan-2-yl]-3-[4-(1H-pyrrolo[2,3-b]pyridin-3-yl)piperidin-1-yl]sulfonylaze-tidine-1-carboxamide], which IC50 is on record?
A: 10 to 100 nM

Q: For `COc1ccnc(N2CC(S(=O)(=O)N3CCC(c4c[nH]c5ncccc45)CC3)C2)c1C#N` [Compound 252, 4-methoxy-2-[3-[4-(1H-pyrrolo [2,3-b]pyridin-3-yl)piperidin-1-yl]sulfonylaze-tidin-1-yl]pyridine-3-carbonitrile], which IC50 is on record?
A: 100 to 1000 nM

Q: For `O=S(=O)(C1CN(c2ncccc2F)C1)N1CCC(c2c[nH]c3ncccc23)CC1` [Compound 253, 3-[1-[1-(3-fluoropyridin-2-yl)azetidin-3-yl]sulfonylpiper-idin-4-yl]-1H-pyrrolo[2,3-b]pyridine], which IC50 is on record?
A: 10 to 100 nM

Q: For `Cc1cccnc1N1CC(S(=O)(=O)N2CCC(c3c[nH]c4ncccc34)CC2)C1` [Compound 254, 3-[1-[1-(3-methylpyridin-2-yl)azetidin-3-yl]sulfonylpiper-idin-4-yl]-1H-pyrrolo[2,3-b]pyridine], which IC50 is on record?
A: 10 to 100 nM

Q: Which IC50 does the source give for `CC(C)(O)c1cccnc1N1CC(S(=O)(=O)N2CCC(c3c[nH]c4ncccc34)CC2)C1` [Compound 255, 2-[2-[3-[4-(1H-pyrrolo[2,3-b]pyridin-3-yl)piperidin-1-yl]sulfonylaze-tidin-1-yl]pyridin-3-yl]propan-2-ol] here?
A: 10 to 100 nM

Q: How did the IC50 turn out when `Cc1ccnc(N2CC(S(=O)(=O)N3CCC(c4c[nH]c5ncccc45)CC3)C2)c1` [Compound 257, 3-[1-[1-(4-methylpyridin-2-yl)azetidin-3-yl]sulfonylpiper-idin-4-yl]-1H-pyrrolo[2,3-b]pyridine] was run?
A: 10 to 100 nM

Q: With `N#Cc1ccnc(N2CC(S(=O)(=O)N3CCC(c4ccncc4)CC3)C2)c1` [Compound 258, 2-[3-(4-pyridin-4-ylpiperidin-1-yl)sulfonylaze-tidin-1-yl]pyridine-4-carbonitrile] as the molecule, how does the IC50 read?
A: 1000 to 10000 nM

Q: How did the IC50 turn out when `O=S(=O)(C1CN(c2ncccc2CO)C1)N1CCC(c2ccncc2)CC1` [Compound 259, [2-[3-(4-pyridin-4-ylpiperidin-1-yl)sulfonylaze-tidin-1-yl]pyridin-3-yl]methanol] was run?
A: 1000 to 10000 nM

Q: With `CCOC(=O)c1coc(N2CC(S(=O)(=O)N3CCC(c4ccncc4)CC3)C2)n1` [Compound 260, ethyl 2-[3-(4-pyridin-4-ylpiperidin-1-yl)sulfonylaze-tidin-1-yl]-1,3-oxazole-4-carboxylate] as the molecule, how does the IC50 read?
A: 1000 to 10000 nM

Q: With `NC(=O)c1coc(N2CC(S(=O)(=O)N3CCC(c4ccncc4)CC3)C2)n1` [Compound 261, 2-[3-[[4-(4-pyridyl)-1-piperidyl]sulfonyl]azetidin-1-yl]oxazole-4-carboxamide] as the molecule, how does the IC50 read?
A: 1000 to 10000 nM

Q: With `Cc1noc(C)c1NC(=O)N1CC(S(=O)(=O)N2CCC(c3ccncc3)CC2)C1` [Compound 262, N-(3,5-dimethyl-1,2-oxazol-4-yl)-3-(4-pyridin-4-ylpiperidin-1-yl)sulfonylaze-tidine-1-carboxamide] as the molecule, how does the IC50 read?
A: 100 to 1000 nM

Q: For `CC[C@@H](C)OC(=O)N1CC(S(=O)(=O)N2CCC(c3ccncc3)CC2)C1` [Compound 263, [(2R)-butan-2-yl]3-(4-pyridin-4-ylpiperidin-1-yl)sulfonylaze-tidine-1-carboxylate], which IC50 is on record?
A: 100 to 1000 nM

Q: How did the IC50 turn out when `O=C(OC1CCCCC1)N1CC(S(=O)(=O)N2CCC(c3ccncc3)CC2)C1` [Compound 264, cyclohexyl 3-(4-pyridin-4-ylpiperidin-1-yl)sulfonylaze-tidine-1-carboxylate] was run?
A: 100 to 1000 nM

Q: For `O=C(NC1(C(F)(F)F)CC1)N1CC(S(=O)(=O)N2CCC(c3ccncc3)CC2)C1` [Compound 265, 3-(4-pyridin-4-ylpiperidin-1-yl)sulfonyl-N-[1-(trifluoromethyl)-cyclopropyl] azetidine-1-carboxamide], which IC50 is on record?
A: 100 to 1000 nM

Q: For `O=C(OCC1CCCCC1)N1CC(S(=O)(=O)N2CCC(c3ccncc3)CC2)C1` [Compound 266, cyclohexylmethyl 3-(4-pyridin-4-ylpiperidin-1-yl)sulfonylaze-tidine-1-carboxylate], which IC50 is on record?
A: 100 to 1000 nM

Q: `Cc1ccc(-n2cc(C3CCN(S(=O)(=O)C4CNC4)CC3)c3cccnc32)nc1` [Compound 267, 3-[1-(azetidin-3-ylsulfonyl)piper-idin-4-yl]-1-(5-methylpyridin-2-yl)pyrrolo [2,3-b]pyridine] was tested. Which IC50 did it give?
A: 1000 to 10000 nM

Q: Which IC50 does the source give for `O=S(=O)(C1CN(c2ccccn2)C1)N1CCC(c2ccncc2)CC1` [Compound 268, 2-[3-(4-pyridin-4-ylpiperidin-1-yl)sulfonylaze-tidin-1-yl]pyridine] here?
A: 1000 to 10000 nM

Q: For `O=S(=O)(C1CN(c2cccnc2)C1)N1CCC(c2c[nH]c3ncccc23)CC1` [Compound 270, 3-[1-(1-pyridin-3-ylazetidin-3-yl)-sulfonylpiper-idin-4-yl]-1H-pyrrolo[2,3-b]pyridine], which IC50 is on record?
A: 100 to 1000 nM

Q: With `CN(C(=O)N1CCC(S(=O)(=O)N2CCC(c3c[nH]c4ncccc34)CC2)C1)C(C)(C)C` (stereo not shown) [Compound 272, N-tert-butyl-N-methyl-3-[4-(1H-pyrrolo[2,3-b]pyridin-3-yl)piperidin-1-yl]sulfonylpyrr olidine-1-carboxamide] as the molecule, how does the IC50 read?
A: 10 to 100 nM

Q: `COC(=O)[C@H]1C[C@@H](S(=O)(=O)N2CCC(c3c[nH]c4ncccc34)CC2)C1` [Compound 273] was tested. Which IC50 did it give?
A: 100 to 1000 nM

Q: Which IC50 does the source give for `COc1cccc(NC(=O)N2CC(S(=O)(=O)N3CCC(c4c[nH]c5ncccc45)CC3)C2)c1` [Compound 275, N-(3-methoxyphenyl)-3-[4-(1H-pyrrolo[2,3-b]pyridin-3-yl)piperidin-1-yl]sulfonylaze-tidine-1-carboxamide] here?
A: 100 to 1000 nM

Q: `Cc1ccc(NC(=O)N2CC(S(=O)(=O)N3CCC(c4c[nH]c5ncccc45)CC3)C2)cc1` [Compound 276, N-(4-methylphenyl)-3-[4-(1H-pyrrolo[2,3-b]pyridin-3-yl)piperidin-1-yl]sulfonylaze-tidine-1-carboxamide] was tested. Which IC50 did it give?
A: 100 to 1000 nM

Q: Which IC50 does the source give for `Cc1ccc(F)cc1NC(=O)N1CC(S(=O)(=O)N2CCC(c3c[nH]c4ncccc34)CC2)C1` [Compound 277, N-(5-fluoro-2-methylphenyl)-3-[4-(1H-pyrrolo[2,3-b]pyridin-3-yl)piperidin-1-yl]sulfonylaze-tidine-1-carboxamide] here?
A: 10 to 100 nM

Q: With `CN(C(=O)C1CC(S(=O)(=O)N2CCC(c3c[nH]c4ncccc34)CC2)C1)C(C)(C)C` (stereo not shown) [Compound 278, N-tert-butyl-N-methyl-3-[4-(1H-pyrrolo [2,3-b]pyridin-3-yl)piperidin-1-yl]sulfonylcycl obutane-1-carboxamide] as the molecule, how does the IC50 read?
A: 10 to 100 nM

Q: `COc1cccc(N(C)C(=O)N2CC(S(=O)(=O)N3CCC(c4c[nH]c5ncccc45)CC3)C2)c1` [Compound 279, N-(3-methoxyphenyl)-N-methyl-3-[4-(1H-pyrrolo [2,3-b]pyridin-3-yl)piperidin-1-yl]sulfonylaze-tidine-1-carboxamide] was tested. Which IC50 did it give?
A: 1000 to 10000 nM

Q: With `O=C(Oc1ccc(F)cc1)N1CC(S(=O)(=O)N2CCC(c3ccncc3)CC2)C1` [Compound 280, (4-fluorophenyl) 3-(4-pyridin-4-ylpiperidin-1-yl) sulfonylaze-tidine-1-carboxylate] as the molecule, how does the IC50 read?
A: 1000 to 10000 nM

Q: With `COc1cccc(NC(=O)N2CC(S(=O)(=O)N3CCC(c4ccncc4)CC3)C2)c1` [Compound 281, N-(3-methoxyphenyl)-3-(4-pyridin-4-ylpiperidin-1-yl)sulfonylaze-tidine-1-carboxamide] as the molecule, how does the IC50 read?
A: 1000 to 10000 nM

Q: With `Cc1ccc(NC(=O)N2CC(S(=O)(=O)N3CCC(c4ccncc4)CC3)C2)cc1` [Compound 282, N-(4-methylphenyl)-3-(4-pyridin-4-ylpiperidin-1-yl)sulfonylaze-tidine-1-carboxamide] as the molecule, how does the IC50 read?
A: 1000 to 10000 nM

Q: For `CC(C)(C)OC(=O)N1CC(S(=O)(=O)N2CCC(c3nc4ccccc4s3)CC2)C1` [Compound 283, tert-butyl 3-[4-(1,3-benzothiazol-2-yl)piperidin-1-yl]sulfonylaze-tidine-1-carboxylate], which IC50 is on record?
A: 100 to 1000 nM

Q: How did the IC50 turn out when `Cc1ccc(F)cc1NC(=O)N1CC(S(=O)(=O)N2CCC(c3ccncc3)CC2)C1` [Compound 286, N-(5-fluoro-2-methylphenyl)-3-(4-pyridin-4-ylpiperidin-1-yl)sulfonylaze-tidine-1-carboxamide] was run?
A: 1000 to 10000 nM

Q: With `O=S(=O)(C1CCC1)N1CCC(c2c[nH]c3ncccc23)CC1` [Compound 287, 3-(1-cyclobutylsulfonylpiperidin-4-yl)-1H-pyrrolo[2,3-b]pyridine] as the molecule, how does the IC50 read?
A: 1000 to 10000 nM

Q: `CN(C(=O)[C@H]1C[C@@H](S(=O)(=O)N2CCC(c3c[nH]c4ncccc34)CC2)C1)C(C)(C)C` [Compound 289, cis-N-tert-butyl-N-methyl-3-[[4-(1H-pyrrolo[2,3-b]pyridin-3-yl)-1-piperidyl]sulfonyl]cyclobutanecarboxamide] was tested. Which IC50 did it give?
A: 10 to 100 nM

Q: Which IC50 does the source give for `CN(C(=O)[C@H]1C[C@H](S(=O)(=O)N2CCC(c3c[nH]c4ncccc34)CC2)C1)C(C)(C)C` [Compound 290, trans-N-tert-butyl-N-methyl-3-[[4-(1H-pyrrolo[2,3-b]pyridin-3-yl)-1-piperidyl]sulfonyl]cyclobutanecarboxamide] here?
A: 100 to 1000 nM

Q: How did the IC50 turn out when `O=C(NCCS(=O)(=O)N1CCC(c2ccncc2)CC1)OC1CCCCC1` [Compound 291, cyclohexyl N-[2-(4-pyridin-4-ylpiperidin-1-yl)sulfonylethyl] carbamate] was run?
A: 1000 to 10000 nM

Q: `O=C(NC1(C(F)(F)F)CC1)N1CC(S(=O)(=O)N2CCC(c3nc4ccccc4s3)CC2)C1` [Compound 293, 3-[4-(1,3-benzothiazol-2-yl)piperidin-1-yl]sulfonyl-N-[1-(trifluoromethyl)cyclopropyl] azetidine-1-carboxamide] was tested. Which IC50 did it give?
A: 10 to 100 nM
